Assay results taken from the supplement of paper PMC11208160.

Assay: recombinant barcode read abundance after kanamycin selection (control-corrected) (log10(CPM+1)); higher = more efficient recombination; sequences stand for … in AGTGCAGAGAAAATCGGCCAGTTTTCTCTGCCTGCAGTCCGCATGCCGT…AGATTTATGCAGCGGACTGCCTTTCTCCCAAAGTGATAAACCGGACAGTATCATGGACCGGTTTTCCCGGTAATCCGTATTTGCAAGGTTGGTTTCACT; site = the 11-nt target
In short: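 A promoter, a target, a barcode and the first 104 bridge RNA bases under J23119 made up each oligo. Oligos were Gibson-cloned into a vector bearing the other 73 bp and a T7-inducible recombinase, then co-electroporated into E. coli with a donor plasmid and plated in duplicate on chloramphenicol/ampicillin LB agar (control) or chloramphenicol/ampicillin/kanamycin with 0.1 mM IPTG. Recombination efficiency is the averaged, control-corrected counts per million of recombinant-junction barcodes. Reported values are log10(CPM+1).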
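Note: IS621 recombinase and bridge RNA in Escherichia coli cells.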

Sequence	recombinant barcode read abundance (log10)
TAGAACACTTGGGTTCTAACCTGTTGCTC (site TAGAACACTAA)	0.421
TAGAACACTTGGGTTCTAACCTGTTGCTC (site TAGAACACTCA)	0.151
TAGAACACTTGGGTTCTAACCTGTTGCTC (site TAGAACACTGA)	0.262
TAGAACACTTGGGTTCTAACCTGTTGCTC (site TAGAACACTTA)	0.0884
TAGAACACTTGGGTTCTAACCTGTTGCTT (site TAGAACACTAA)	0.16
TAGAACACTTGGGTTCTAACCTGTTGCTT (site TAGAACACTCA)	0.0447
TAGAACACTTGGGTTCTAACCTGTTGCTT (site TAGAACACTGA)	0.153
TAGAACACTTGGGTTCTAACCTGTTGCTT (site TAGAACACTTA)	0.169
TAGAAGACTTGGGTTCTAACCTGTTGCAT (site TAGAAGACTAT)	1.01
TAGAAGACTTGGGTTCTAACCTGTTGCAT (site TATAAGACTGT)	0.0979
TAGAAGCCTTGGGTTCTAACCTGTTGCCT (site AAGAAGCCTAG)	0.248
TAGAAGCCTTGGGTTCTAACCTGTTGCCT (site CAGAAGCCTAG)	0.43
TAGAAGCCTTGGGTTCTAACCTGTTGCCT (site GAGAAGCCTAG)	0.06
TAGAAGCCTTGGGTTCTAACCTGTTGCCT (site TAGAAGCCTAG)	1.11
TAGAAGGCTTGGGTTCTAACCTGTTGCCT (site TAGAAGGCTAA)	0.139
TAGAAGGCTTGGGTTCTAACCTGTTGCCT (site TAGAAGGCTAC)	0.1
TAGAAGGCTTGGGTTCTAACCTGTTGCCT (site TAGAAGGCTAG)	0.216
TAGAAGGCTTGGGTTCTAACCTGTTGCCT (site TAGAAGGCTAT)	0.325
TAGAAGGCTTGGGTTCTAACCTGTTGCTT (site TAGAAGGCTAA)	0.805
TAGAAGGCTTGGGTTCTAACCTGTTGCTT (site TAGAAGGCTAC)	0.0392
TAGAAGGCTTGGGTTCTAACCTGTTGCTT (site TAGAAGGCTAG)	0.0656
TAGAAGGCTTGGGTTCTAACCTGTTGCTT (site TAGAAGGCTAT)	0.28

Sequence	recombinant barcode read abundance (log10)
TAGAATCCTTGGGTTCTAACCTGTTGCAA (site TAGAATCCTAT)	0.15
TAGAATCCTTGGGTTCTAACCTGTTGCAA (site TAGAATCCTCT)	0.123
TAGAATCCTTGGGTTCTAACCTGTTGCAA (site TAGAATCCTGT)	0.116
TAGAATCCTTGGGTTCTAACCTGTTGCAA (site TAGAATCCTTT)	0.147
TAGACGGCTTGGGTTCTAACCTGTTGCAT (site GGATACACTCG)	0.191
TAGACGGCTTGGGTTCTAACCTGTTGCAT (site TAGACGGCTAT)	0.463
TAGAGAGCTTGGGTTCTAACCTGTTGCAG (site TAGAGAGCTCT)	1.94
TAGAGAGCTTGGGTTCTAACCTGTTGCAG (site TAGGGAGCTAT)	0.265
TAGAGCCCTTGGGTTCTAACCTGTTGCGG (site TAGAGCCCTCC)	0.953
TAGAGCCCTTGGGTTCTAACCTGTTGCGG (site TCGAGGCCTCC)	0.0902
TAGATCCCTTGGGTTCTAACCTGTTGCTT (site TAGAACCCTAA)	0.245
TAGATCCCTTGGGTTCTAACCTGTTGCTT (site TAGATCCCTAA)	0.528
TAGCACCCTTGGGTTCTAACCTGTTGCCG (site TAGCACCCTAG)	0.287
TAGCACCCTTGGGTTCTAACCTGTTGCCG (site TAGCACCCTCG)	1.19
TAGCACCCTTGGGTTCTAACCTGTTGCCG (site TAGCACCCTGG)	0.239
TAGCACCCTTGGGTTCTAACCTGTTGCCG (site TAGCACCCTTG)	0.356
TAGCAGTCTTGGGTTCTAACCTGTTGCGC (site CGCGCCACTAG)	0.251
TAGCAGTCTTGGGTTCTAACCTGTTGCGC (site TAGCAGTCTGC)	2.05
TAGCATGCTTGGGTTCTAACCTGTTGCAA (site TAGCATGCTAT)	0.382
TAGCATGCTTGGGTTCTAACCTGTTGCAA (site TAGCATGCTCT)	0.597
TAGCATGCTTGGGTTCTAACCTGTTGCAA (site TAGCATGCTGT)	0.115
TAGCATGCTTGGGTTCTAACCTGTTGCAA (site TAGCATGCTTT)	0.324

Sequence	recombinant barcode read abundance (log10)
TAGCATGCTTGGGTTCTAACCTGTTGCAC (site TAGCATGCTAT)	0.677
TAGCATGCTTGGGTTCTAACCTGTTGCAC (site TAGCATGCTCT)	0.203
TAGCATGCTTGGGTTCTAACCTGTTGCAC (site TAGCATGCTGT)	0.978
TAGCATGCTTGGGTTCTAACCTGTTGCAC (site TAGCATGCTTT)	0.306
TAGCCTTCTTGGGTTCTAACCTGTTGCTA (site TAGCCTTCTCA)	0.0251
TAGCCTTCTTGGGTTCTAACCTGTTGCTA (site TAGCCTTCTTA)	0.129
TAGCGGCCTTGGGTTCTAACCTGTTGCGG (site CCAGTATCTAT)	0.453
TAGCGGCCTTGGGTTCTAACCTGTTGCGG (site TAGCGGCCTCC)	2.23
TAGGAAACTTGGGTTCTAACCTGTTGCGT (site TAGGAAACTAC)	2.98
TAGGAAACTTGGGTTCTAACCTGTTGCGT (site TAGGACACTAC)	0.0791
TAGGAAACTTGGGTTCTAACCTGTTGCGT (site TAGGAGACTAC)	0.781
TAGGAAACTTGGGTTCTAACCTGTTGCGT (site TAGGATACTAC)	0.447
TAGGCGACTTGGGTTCTAACCTGTTGCTA (site TAGGCGACTTA)	0.454
TAGGCGACTTGGGTTCTAACCTGTTGCTA (site TAGGGCACTTA)	0.156
TAGGCGACTTGGGTTCTAACCTGTTGCTT (site TAGACGACTAA)	0.177
TAGGCGACTTGGGTTCTAACCTGTTGCTT (site TAGCCGACTAA)	0.182
TAGGCGACTTGGGTTCTAACCTGTTGCTT (site TAGGCGACTAA)	0.395
TAGGCGACTTGGGTTCTAACCTGTTGCTT (site TAGTCGACTAA)	0
TAGGCGTCTTGGGTTCTAACCTGTTGCAG (site TAGCCTTCTCT)	0.0835
TAGGCGTCTTGGGTTCTAACCTGTTGCAG (site TAGGCGTCTCT)	2.27
TAGGCTCCTTGGGTTCTAACCTGTTGCAC (site TAGGCTCCTAT)	0.2
TAGGCTCCTTGGGTTCTAACCTGTTGCAC (site TAGGCTCCTCT)	0.0904

Sequence	recombinant barcode read abundance (log10)
TAGGCTCCTTGGGTTCTAACCTGTTGCAC (site TAGGCTCCTGT)	1.94
TAGGCTCCTTGGGTTCTAACCTGTTGCAC (site TAGGCTCCTTT)	0.726
TAGGCTCCTTGGGTTCTAACCTGTTGCTT (site TACGGTCCTAA)	0.0632
TAGGCTCCTTGGGTTCTAACCTGTTGCTT (site TAGGCTCCTAA)	0.277
TAGGCTGCTTGGGTTCTAACCTGTTGCAT (site TAGGCTGCTAT)	0.882
TAGGCTGCTTGGGTTCTAACCTGTTGCAT (site TTGGGTGCTAT)	0.0414
TAGGGCACTTGGGTTCTAACCTGTTGCTA (site TAGGCGACTTA)	0.875
TAGGGCACTTGGGTTCTAACCTGTTGCTA (site TAGGGCACTTA)	1.44
TAGGGTCCTTGGGTTCTAACCTGTTGCGG (site TAAGGTCCTCT)	1.35
TAGGGTCCTTGGGTTCTAACCTGTTGCGG (site TAGGGTCCTCC)	2.88
TAGGGTTCTTGGGTTCTAACCTGTTGCGG (site CAGGGTCCTCC)	0.0906
TAGGGTTCTTGGGTTCTAACCTGTTGCGG (site TAGGGTTCTCC)	3.01
TAGGTCACTTGGGTTCTAACCTGTTGCAT (site TAGATCACTAT)	0.337
TAGGTCACTTGGGTTCTAACCTGTTGCAT (site TAGCTCACTAT)	0.0353
TAGGTCACTTGGGTTCTAACCTGTTGCAT (site TAGGTCACTAT)	2.43
TAGGTCACTTGGGTTCTAACCTGTTGCAT (site TAGTTCACTAT)	0.0621
TAGTAACCTTGGGTTCTAACCTGTTGCTT (site TAGTAACCTAA)	0.683
TAGTAACCTTGGGTTCTAACCTGTTGCTT (site TAGTACCCTCA)	0.0923
TAGTACTCTTGGGTTCTAACCTGTTGCTC (site TAGTACTCTAA)	0.096
TAGTACTCTTGGGTTCTAACCTGTTGCTC (site TAGTACTCTCA)	0.429
